According to PubChem BioAssay (NCI):
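Tested at 5 concentrations; 48 h exposure; 96-well plates; endpoints linearly interpolated, else capped at highest concentration. GI50 marks 50% less growth. TGI marks complete inhibition of growth.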

Experiments:
Test in all cases: growth of human tumour cells (NCI), 48 h
[1] = test system: MALME-3M melanoma
[2] = test system: HOP-92 NSCLC
[3] = test system: IGROV1 ovarian
[4] = test system: HS 578T breast
[5] = test system: EKVX NSCLC
[6] = test system: T-47D breast
[7] = test system: MDA-MB-231 breast
[8] = test system: HCT-116 colon
[9] = test system: TK-10 renal
[10] = test system: NCI-H23 lung
[11] = test system: RXF 393 renal
[12] = test system: NCI-H522 lung
[13] = test system: LOX IMVI melanoma
[14] = test system: PC-3 prostate
[15] = test system: SK-MEL-28 melanoma
[16] = test system: NCI/ADR-RES ovarian
[17] = test system: HT29 colon
[18] = test system: M14 melanoma
[19] = test system: OVCAR-4 ovarian
[20] = test system: BT-549 breast
[21] = test system: COLO 205 colon
[22] = test system: MCF7 breast
[23] = test system: A549 NSCLC
[24] = test system: K-562 leukemia
[25] = test system: SK-OV-3 ovarian
[26] = test system: UACC-62 melanoma
[27] = test system: CCRF-CEM leukemia
[28] = test system: CAKI-1 renal
[29] = test system: SNB-75 CNS
[30] = test system: NCI-H460 lung
[31] = test system: NCI-H226 lung
[32] = test system: UACC-257 melanoma
[33] = test system: RPMI-8226 leukemia
[34] = test system: A498 renal
[35] = test system: HOP-62 NSCLC
[36] = test system: OVCAR-8 ovarian
[37] = test system: SF-295 CNS
[38] = test system: U251 CNS
[39] = test system: MDA-MB-435
[40] = test system: SR leukemia
[41] = test system: HL-60(TB) leukemia
[42] = test system: MOLT-4 leukemia
[43] = test system: SW-620 colon
[44] = test system: KM12 colon
[45] = test system: 786-0 renal
[46] = test system: UO-31 renal
[47] = test system: SN12C renal
[48] = test system: HCC-2998 colon
[49] = test system: OVCAR-3 ovarian
[50] = test system: SK-MEL-5 melanoma
[51] = test system: SNB-19 CNS
[52] = test system: DU-145 prostate
[53] = test system: SK-MEL-2 melanoma
[54] = test system: SF-268 CNS

For `CCN(CC)Cc1cc(Nc2c3ccc(Cl)cc3nc3ccc(OC)cc23)ccc1O`, the GI50 [1] was 2.13 µM, the TGI [1] was 4.21 µM and the GI50 [2] was 16.5 µM. The TGI [2] was 31 µM, the GI50 [3] was 5.11 µM and the TGI [3] was 21.1 µM. For the same molecule, the GI50 [4] was 12.2 µM, the TGI [4] was 33.1 µM and the GI50 [5] was 12 µM. It also gave a TGI [5] of 34.7 µM, a GI50 [6] of 2.41 µM and a TGI [6] of 7.25 µM. For the same molecule, the GI50 [7] was 4.28 µM, the TGI [7] was 15.1 µM and the GI50 [8] was 2.34 µM. For the same molecule, the TGI [8] was 6.32 µM, the GI50 [9] was 7.09 µM and the TGI [9] was 20 µM. For the same molecule, the GI50 [10] was 6.86 µM, the TGI [10] was 23.3 µM and the GI50 [11] was 1.73 µM. It also gave a TGI [11] of 4.36 µM, a GI50 [12] of 4.62 µM and a TGI [12] of 16.5 µM. The GI50 [13] was 2 µM, the TGI [13] was 3.82 µM and the GI50 [14] was 5.76 µM. The TGI [14] was 22 µM, the GI50 [15] was 1.77 µM and the TGI [15] was 3.26 µM. It also gave a GI50 [16] of 4.7 µM, a TGI [16] of 17.8 µM and a GI50 [17] of 2.26 µM. For the same molecule, the TGI [17] was 5.03 µM, the GI50 [18] was 1.88 µM and the TGI [18] was 3.43 µM. It also gave a GI50 [19] of 3.66 µM, a TGI [19] of 13.1 µM and a GI50 [20] of 17.2 µM. For the same molecule, the TGI [20] was 31.4 µM, the GI50 [21] was 1.79 µM and the TGI [21] was 3.34 µM. The GI50 [22] was 1.6 µM, the TGI [22] was 4.04 µM and the GI50 [23] was 5.59 µM. For the same molecule, the TGI [23] was 21.2 µM, the GI50 [24] was 2.65 µM and the TGI [24] was 6.39 µM. The GI50 [25] was 11.1 µM, the TGI [25] was 23.4 µM and the GI50 [26] was 2.11 µM. For the same molecule, the TGI [26] was 4.31 µM, the GI50 [27] was 3.86 µM and the TGI [27] was 55.6 µM. The GI50 [28] was 2.89 µM, the TGI [28] was 11.7 µM and the GI50 [29] was 5.07 µM. It also gave a TGI [29] of 18.9 µM, a GI50 [30] of 4.03 µM and a TGI [30] of 14.4 µM. The GI50 [31] was 7.28 µM, the TGI [31] was 21.4 µM and the GI50 [32] was 2.17 µM. For the same molecule, the TGI [32] was 3.89 µM, the GI50 [33] was 2.8 µM and the TGI [33] was 6.63 µM. It also gave a GI50 [34] of 13.9 µM, a TGI [34] of 27.5 µM and a GI50 [35] of 2.89 µM. The TGI [35] was 10.9 µM, the GI50 [36] was 3.68 µM and the TGI [36] was 12.6 µM. For the same molecule, the GI50 [37] was 3.5 µM, the TGI [37] was 17.1 µM and the GI50 [38] was 3.04 µM. It also gave a TGI [38] of 13.2 µM, a GI50 [39] of 2.29 µM and a TGI [39] of 6 µM. For the same molecule, the GI50 [40] was 3.32 µM, the TGI [40] was 8.99 µM and the GI50 [41] was 5.32 µM. It also gave a TGI [41] of 25.5 µM, a GI50 [42] of 4.14 µM and a TGI [42] of 12.2 µM. The GI50 [43] was 3.25 µM, the TGI [43] was 11.1 µM and the GI50 [44] was 3.17 µM. It also gave a TGI [44] of 14.5 µM, a GI50 [45] of 4.21 µM and a TGI [45] of 15.2 µM. The GI50 [46] was 4.16 µM, the TGI [46] was 16.1 µM and the GI50 [47] was 5.61 µM. For the same molecule, the TGI [47] was 18.3 µM, the GI50 [48] was 2.16 µM and the TGI [48] was 3.78 µM. For the same molecule, the GI50 [49] was 7.59 µM, the TGI [49] was 22.7 µM and the GI50 [50] was 2.9 µM. For the same molecule, the TGI [50] was 10.3 µM, the GI50 [51] was 6.4 µM and the TGI [51] was 19.3 µM. It also gave a GI50 [52] of 5.01 µM, a TGI [52] of 18.3 µM and a GI50 [53] of 2.36 µM. The TGI [53] was 4.6 µM, the GI50 [54] was 4.33 µM and the TGI [54] was 18.5 µM.
